Results from patent US6943166B1, “Compositions comprising phosphodiesterase inhabitors for the treatment of sexual disfunction” (Lilly ICOS LLC., priority 1999, dated 2005).

How the values were obtained:
[1] = system: patients taking organic nitrates; conditions: combination with organic nitrates; cited from earlier work
PDEl = conditions: package insert; cited from earlier work
patients in need thereof = assay: Example 6: two randomized, double-blinded placebo controlled studies, daily and on demand dosing; format: in vivo, human
Experimental: In two randomized, double-blinded placebo controlled studies, Compound (I) was administered to patients in need thereof at a range of doses, in both daily dosing and for on demand therapy, for sexual encounters and intercourse in the home setting.
Enhanced erectile function was determined by the International Index of Erectile Function (IIEF) (Rosen et al., Urology, 49, pp. 822-830 (1997)), diaries of sexual attempts, and a global satisfaction question.

[2] = system: patients with male erectile dysfunction; assay: Example 7: placebo-controlled on demand study in male erectile dysfunction (IIEF, SEP, safety); format: in vivo, human; conditions: for patients who rated ability to maintain an erection (IIEF Question 4) as almost always or always: at endpoint
Experimental: A third clinical study was a randomized, double-blind, placebo-controlled study of Compound (I) administered “on demand” to patients with male erectile dysfunction. Compound (I) was administered over a period of eight weeks in the treatment of male erectile dysfunction (ED). Erectile dysfunction (ED) is defined as the persistent inability to attain and/or maintain an erection adequate to permit satisfactory sexual performance.
The study population consisted of 212 men, at least 18 years of age, with mild to severe erectile dysfunction. […] Treatment with all nitrates, azole antifungals (e.g., ketoconazole or itraconazole), warfarin, erythromycin, or antiandrogens was not allowed at any time during the study. No other approved or experimental medications, treatments, or devices used to treat ED were allowed. Forty-one subjects were administered a placebo.
The two primary efficacy variables were the ability of a subject to penetrate their partner and their ability to maintain an erection during intercourse, as measured by the International Index of Erectile Function (IIEF). The IIEF Questionnaire contains fifteen questions, and is a brief, reliable measure of erectile function. See R. C. Rosen et al., Urology, 49, pp. 822-830 (1997)
Secondary efficacy variables were IIEF domain scores for erectile function, orgasmic function, sexual desire, intercourse satisfaction, and overall satisfaction; the patient's ability to achieve an erection, ability to insert their penis into their partner's vagina, completion of intercourse with ejaculation, satisfaction with the hardness of their erection, and overall satisfaction, all as measured by the Sexual Encounter Profile (SEP) diary; and a global assessment question asked at the end of the treatment period. […]
The safety aspect of the study included all enrolled subjects, and was assessed by evaluating all reported adverse events, and changes in clinical laboratory values, vital signs, physical examination results, and electrocardiogram results.

healthy male volunteers = assay: Example 5: drug interaction study of Compound (I) with short-acting nitrates (hemodynamic effects); format: in vivo, human
Experimental: On the sixth or seventh day, the subjects received sublingual nitroglycerin (0.4 mg) while supine on a tilt table. […] The subjects were tilted to 70° head-up every 5 minutes for a total of 30 minutes with measurement of blood pressure and heart rate. There were no discontinuations among the twenty-two healthy male subjects (ages 19 to 60 years old) that entered this study.

[3] = 10 mg daily for seven days, sublingual nitroglycerin 0.4 mg

For `CCCc1nn(C)c2c(=O)[nH]c(-c3cc(S(=O)(=O)N4CCN(C)CC4)ccc3OCC)nc12` [sildenafil], the “blood pressure effect in patients taking organic nitrates” value [1] is listed as “clinically significant drop in blood pressure” and the “more potent inhibitor of PDE5 than PDE1” value (PDEl) is listed as “greater than 80 fold”.
With `CN1CC(=O)N2[C@H](c3ccc4c(c3)OCO4)c3[nH]c4ccccc4c3C[C@@H]2C1=O` [Compound (I), (6R,12aR)-2,3,6,7,12,12a-hexahydro-2-methyl-6-(3,4-methylenedioxyphenyl)-pyrazino[2′,1′:6,1]pyrido[3,4-b]indole-1,4-dione] the “efficacy for sexual encounters and intercourse” value (patients in need thereof; 10 mg dose) was “fully efficacious”, the side effects (patients in need thereof; 10 mg dose) was “minimal side effects” and the “efficacy for sexual encounters and intercourse” value (patients in need thereof; doses from 5 to 20 mg) was “efficacious”. The flushing (patients in need thereof; doses from 5 to 20 mg) was “less than 1%”, the “percentage of successful intercourse attempts including ability to attain and maintain an erection” value (patients in need thereof; on demand and daily dosing regimens) was “significantly improved” and the “patients who rated ability to maintain an erection (IIEF Question 4) as almost always or always” value ([2]; 10 mg on demand) was 39.0%. For the same compound, the “patients who rated ability to maintain an erection (IIEF Question 4) as almost always or always” value ([2]; 25 mg on demand) was 69.0%, the “incidence of treatment-emergent adverse events” value ([2]; 2 to 25 mg on demand) was “appeared related to dose” and the “changes in laboratory safety assessments or 12-lead ECGs” value (healthy male volunteers; 10 mg daily for seven days) was “no Compound (I) changes”. For the same compound, the “effect on mean maximal nitroglycerin-induced decrease in systolic blood pressure” value (healthy male volunteers; [3]) was “minimal, if any, effect”, the “effect on mean systolic blood pressure” value (healthy male volunteers; [3]) was “minimal, if any, effect” and the “impact on systolic blood pressure” value (healthy male volunteers; administered in conjunction with organic nitrates, human clinical studies) was “minimal impact”.
